pIC50: −log10 of the molar value. Structures can show the parent of a compound that is named as a salt.
Legend:
[1] = target: T1, 5-HT reuptake (5-HT transporter) (Rattus norvegicus, UniProt P31652); assay: Inhibition of 5-HT reuptake in rat brain synaptosome (3H-5-HT uptake); format: biochemical; conditions: for inhibition at 10 µM: read-out: 5-HT reuptake percent inhibition
T1 construct: from tissue; host or cells: Wistar rat brain (procerebrum; crude synaptosomal supernatant)
Method: (§1) All the target compounds were evaluated for their inhibitory activity against the reuptake of 5-HT and NE at the cellular level. Rat brain tissue was used for the uptake test, which included ^3H-5-HT and ^3H-NE [15]. 1-[7,8-^3H]-Noradrenaline and 5-hydroxy-[^3H]-tryptamine trifluoroacetate were obtained from Amersham Corporation.
(§2) Adult male Wistar rats were used. Animals were killed by decapitation and the whole brain, with the exception of the brainstem and cerebellum, was quickly removed. The procerebrum region was prepared, weighed, and homogenized in 10 volumes of ice-cold 0.32 mol/L sucrose solution using a glass homogenizer. The homogenate was centrifuged at 1000× g and 4 °C for 10 min. The supernatant was decanted and used for the uptake experiments. […] For each assay, three tubes were incubated with the vehicle (20 µL) at 0 °C in an ice bath. After incubation, the tubes were immediately filtered with a cell harvester. The fiberglass filter membrane was washed three times with ice-cold saline, placed in a scintillation vial, and counted in liquid scintillation cocktail (4 mL). Active uptake was the difference between the counts per minute at 37 and 0 °C. The percent inhibition at each drug concentration was the mean of three measurements.

[2] = target: T2, NE reuptake (NE transporter) (Rattus norvegicus, UniProt Q63380); assay: Inhibition of NE reuptake in rat brain synaptosome (3H-NE uptake); format: biochemical; conditions: for inhibition at 10 µM: read-out: NE reuptake percent inhibition
T2 construct: from tissue; host or cells: Wistar rat brain (procerebrum; crude synaptosomal supernatant)
Method: as §1, §2

[3] = system: rats; assay: Tail suspension test (TST) in rats; format: in vivo, rat; conditions: male rats, 30 mg/kg PO; for Immobility Time: 60 min after administration; for Rate of Shorten Time (%): compared with the negative control group
Method: Based on the in vitro results, compounds I-19, II-4, and II-5 were selected for the tail suspension test (TST) in rats. The TST has been used widely as a preclinical model for screening antidepressant activity, and it is sensitive to commercially available antidepressant drugs. In the assay, rats are suspended by tail and the time that the animal is immobile is recorded. The compounds were administered to male rats at a dose of 30 mg/kg (PO). […] In addition, the safety profile of compound II-5 was also explored with a preliminary acute toxicity test in mice at a single dose of 200 or 400 mg/kg (PO) (n = 6).
For two days before the formal experiment, the rats in each group were given doses orally once a day in the morning and in the afternoon. The rats were given doses orally once in each group in the formal experiment. After 60 min of administration, the rats were suspended head-down more than 50 cm from the ground with a 12-cm-long piece of insulating tape at a distance of 1 cm from the tail tip. The distance between adjacent rats was 15 cm. The immobility time of the rats was recorded. The rate of change in the immobility time of the rats in the test drug group and the positive control group was calculated and compared with the negative control group. Statistical analysis was performed using Prism 7.0 (GraphPad Software, San Diego, CA, USA).

[4] = Preliminary acute toxicity test in mice; format: in vivo; conditions: male, ICR, mouse, in vivo; mice, PO, 20 h
Method: (§3) In the assay, rats are suspended by tail and the time that the animal is immobile is recorded. The compounds were administered to male rats at a dose of 30 mg/kg (PO).
(§4) Male ICR mice (20–25 g) were used from Institute of Materia Medica, Chinese Academy of Medical Sciences, Beijing, China. Mice were randomly divided into two groups with six mice each. Mice were orally given II-5 with a single dose 200 and 400 mg/kg or vehicle control, respectively. The mouse death was monitored for 20 h after treatment.

[5] = system: mice; assay: Preliminary acute toxicity test in mice; format: in vivo; conditions: male ICR mice, n = 6
Method: as §3, §4

T2 sequence (Q63380 1-617): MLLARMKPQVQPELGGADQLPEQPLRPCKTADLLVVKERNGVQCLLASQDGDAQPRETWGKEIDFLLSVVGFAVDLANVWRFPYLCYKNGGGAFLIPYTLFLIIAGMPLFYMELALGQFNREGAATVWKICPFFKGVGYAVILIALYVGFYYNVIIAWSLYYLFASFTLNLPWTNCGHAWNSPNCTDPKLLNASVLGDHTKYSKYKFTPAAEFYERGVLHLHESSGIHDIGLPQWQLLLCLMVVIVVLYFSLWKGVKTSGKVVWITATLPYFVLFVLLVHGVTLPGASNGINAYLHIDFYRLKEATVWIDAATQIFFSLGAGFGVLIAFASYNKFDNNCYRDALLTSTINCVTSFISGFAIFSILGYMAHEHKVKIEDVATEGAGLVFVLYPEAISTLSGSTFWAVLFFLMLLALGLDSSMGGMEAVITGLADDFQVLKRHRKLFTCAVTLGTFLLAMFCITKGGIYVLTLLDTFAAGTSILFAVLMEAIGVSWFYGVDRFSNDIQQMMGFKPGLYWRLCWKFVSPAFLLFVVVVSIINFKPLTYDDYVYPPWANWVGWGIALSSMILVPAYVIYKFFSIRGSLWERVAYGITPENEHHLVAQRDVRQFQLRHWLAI
T1 sequence (P31652 whole entry): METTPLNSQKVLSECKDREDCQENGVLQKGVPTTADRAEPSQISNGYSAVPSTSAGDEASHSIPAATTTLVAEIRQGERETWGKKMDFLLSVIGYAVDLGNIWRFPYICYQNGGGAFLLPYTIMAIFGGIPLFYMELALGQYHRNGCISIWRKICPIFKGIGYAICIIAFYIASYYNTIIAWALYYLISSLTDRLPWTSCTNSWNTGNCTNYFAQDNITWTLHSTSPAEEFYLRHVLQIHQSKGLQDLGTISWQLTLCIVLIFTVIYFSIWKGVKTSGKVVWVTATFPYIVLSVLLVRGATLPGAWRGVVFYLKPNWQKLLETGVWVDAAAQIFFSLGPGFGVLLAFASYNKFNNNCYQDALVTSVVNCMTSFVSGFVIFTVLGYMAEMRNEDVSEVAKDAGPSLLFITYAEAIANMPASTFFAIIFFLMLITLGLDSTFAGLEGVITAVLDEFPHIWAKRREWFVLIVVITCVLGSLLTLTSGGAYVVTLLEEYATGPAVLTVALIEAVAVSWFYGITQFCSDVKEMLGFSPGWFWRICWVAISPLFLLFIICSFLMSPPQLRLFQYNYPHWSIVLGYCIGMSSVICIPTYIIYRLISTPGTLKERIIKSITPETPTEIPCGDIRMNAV

c1ccc(/C(=N\Cc2cccc3ccccc23)N2CCNCC2)cc1 (as salt: hydrochloride) [II-1, (E)-1-(Naphthalen-1-yl)-N-(phenyl(piperazin-1-yl)methylene)methanaminehydrochloride]
melting point: 187 to 189 °C

O=[N+]([O-])c1ccc(/C(=N\Cc2cccc3ccccc23)N2CCNCC2)cc1 (as salt: hydrochloride) [II-2, (E)-1-(Naphthalen-1-yl)-N-((4-nitrophenyl)(piperazin-1-yl)methylene)methanaminehydrochloride]
melting point: 202 to 204 °C

Fc1ccc(/C(=N\Cc2cccc3ccccc23)N2CCNCC2)cc1 (as salt: hydrochloride) [II-3, (E)-N-((4-Fluorophenyl)(piperazin-1-yl)methylene)-1-(naphthalen-1-yl)methanaminehydrochloride]
melting point: 193 to 195 °C

Clc1cccc(/C(=N\Cc2cccc3ccccc23)N2CCNCC2)c1 (as salt: hydrochloride) [II-6, (E)-N-((3-Chlorophenyl)(piperazin-1-yl)methylene)-1-(naphthalen-1-yl)methanaminehydrochloride]
melting point: 198 to 200 °C

Clc1ccc(/C(=N\Cc2cccc3ccccc23)N2CCNCC2)cc1 (as salt: hydrochloride) [II-7, (E)-N-((4-Chlorophenyl)(piperazin-1-yl)methylene)-1-(naphthalen-1-yl)methanaminehydrochloride]
melting point: 210 to 212 °C

N#Cc1ccc(/C(=N\Cc2cccc3ccccc23)N2CCNCC2)cc1 (as salt: hydrochloride) [II-8, (E)-4-(((Naphthalen-1-ylmethyl)imino)(piperazin-1-yl)methyl)benzonitrilehydrochloride]
melting point: 158 to 160 °C

N#Cc1cccc(/C(=N\Cc2cccc3ccccc23)N2CCNCC2)c1 (as salt: hydrochloride) [II-9, (E)-3-(((Naphthalen-1-ylmethyl)imino)(piperazin-1-yl)methyl)benzonitrilehydrochloride]
melting point: 168 to 170 °C

Cc1ccc(/C(=N\Cc2cccc3ccccc23)N2CCNCC2)cc1 (as salt: hydrochloride) [II-10, (E)-1-(Naphthalen-1-yl)-N-(piperazin-1-yl(p-tolyl)methylene)methanaminehydrochloride]
melting point: 178 to 180 °C

O=[N+]([O-])c1cccc2c(/C(=N\Cc3ccccc3)N3CCNCC3)cccc12 (as salt: hydrochloride) [III-1, (E)-N-((5-Nitronaphthalen-1-yl)(piperazin-1-yl)methylene)-1-phenylmethanaminehydrochloride]
melting point: 173 to 175 °C

COc1ccc(/C(=N\Cc2ccccc2)N2CCNCC2)cc1.Cl [Compound I-1, (E)-N-((4-Methoxyphenyl)(piperazin-1-yl)methylene)-1-phenylmethanamine hydrochloride]
inhibition at 10 µM [1]: 65%
inhibition at 10 µM [2]: 67%
melting point: 195 to 197 °C

N#Cc1cccc(/C(=N\Cc2ccc(Cl)cc2)N2CCNCC2)c1 [Compound I-19, (E)-1-(4-Chlorophenyl)-N-((3-cyanophenyl)(piperazin-1-yl)methylene)methanaminehydrochloride]
pIC50 [1]: 6.08
inhibition at 10 µM [1]: 82%
pIC50 [2]: 6.25
inhibition at 10 µM [2]: 78%
Immobility Time [3]: 34 ± 17 s
Rate of Shorten Time (%) [3]: 37.8%

CNCC[C@H](Oc1cccc2ccccc12)c1cccs1 [Duloxetine, reference compound]
Immobility Time [3]: 11 ± 5 s
Rate of Shorten Time (%) [3]: 79.0%

Fc1ccccc1/C(=N\Cc1cccc2ccccc12)N1CCNCC1 [II-4, (E)-N-((2-Fluorophenyl)(piperazin-1-yl)methylene)-1-(naphthalen-1-yl)methanaminehydrochloride]
pIC50 [1]: 6.89
inhibition at 10 µM [1]: 90%
pIC50 [2]: 6.06
inhibition at 10 µM [2]: 78%
Immobility Time [3]: 33 ± 19 s
Rate of Shorten Time (%) [3]: 39.7%

Clc1ccccc1/C(=N\Cc1cccc2ccccc12)N1CCNCC1 [II-5, (E)-N-((2-Chlorophenyl)(piperazin-1-yl)methylene)-1-(naphthalen-1-yl)methanaminehydrochloride]
pIC50 [1]: 6.21
inhibition at 10 µM [1]: 81%
pIC50 [2]: 8.00
inhibition at 10 µM [2]: 92%
Immobility Time [3]: 18 ± 7 s
Rate of Shorten Time (%) [3]: 67.8%
LD50 at 20 h [4]: > 400 mg/kg
Survival at 20 h ([5]; single dose 200 mg/kg PO): 100%
Survival at 20 h ([5]; single dose 400 mg/kg PO): 100%
